# Source: patent US20120142750A1, “INDOLEAMINE 2,3-DIOXYGENASE PATHWAYS IN THE GENERATION OF REGULATORY T CELLS” (Regents of the University of Minnesota, priority 2005, published 2012)
# Entries after “also recorded” stand apart in the source; their conditions may differ.
# Columns and labels:
# [1] = tested on: PDCs and allogeneic naive CD4+ T cells; assay: In vitro priming of naive CD4+ T cells by allogeneic PDCs: CD4+CD25+Foxp3+ Treg generation (flow cytometry); assay type: cell-based, human; settings: added to CpG ODN-PDC/naive CD4+ T cell priming cultures; day 7; 1MT 250 μM, Abs 0.1-10 μg/ml
# Source text: PDC, B, and T cell isolation. Human PBMC were isolated under IRE-approved protocols from apheresis products of healthy blood donors (Memorial Blood Centers of Minnesota, Minneapolis, Minn.) by Ficoll-Paque density gradient centrifugation. Plasmascytoid dendritic cells (PDCs) were isolated from PBMC using BDCA-4 cell isolation kits and the MACS system, followed by staining and sorting to collect purified Lin-CD11c-CD123+ PDCs, as reported previously (Moseman et al., J Immunol 2004; 173:4433-4442). […] cells were isolated from PBMC using CD4 T cell isolation kits followed by positive selection with CD45RA microbeads. […] B cells were isolated from PBMC with CD19 microbeads and the MACS system to greater than 98% purity of CD19+ B cells. All cell isolations kits and microbeads were from Miltenyi Biotec (Bergisch Gladbach, Germany). Reagents. Phosphorothioate-modified type-A CpG ODN 2216: […] NO:2), type-B CpG ODN 2006: […] NO:3) (sequences are shown 5'-3'; small letters represent phosphorothioate linkage; capital letters represent phosphodiester linkage 3' of the base; bold represents CpGdinucleotides) were from Integrated DNA Technologies (Coralville, Iowa), diluted in PBS, and used at a final concentration of 1 microgran per milliliter (μg/ml). […] Kynurenine (L-KYN, Sigma-Aldrich) was used at a final concentration of 50 μM. In vitro priming of naive CD4+ T cells. CD4+CD45RA+ naive T cells were primed with allogeneic PDCs or irradiated B cells (30 Gy) at a 10:1 ratio (e.g., 2×10^6 naive CD4+ T cells plus 2×105 PDCs per well in 24-well plates) with ODN 2216 or ODN 2006 present in RPMI 1640 medium supplemented with 10% human AB serum. 1 MT and/or KYN were added into CpG ODN-PDC or CpG ODN-B cell mediated naive CD4+ T cell priming cultures as indicated. […] After 7 days, primed T cells in cultures were harvested, assessed for their surface phenotype, intracellular Foxp3 expression, and their function in MLR assays. […] Mean fluorescence intensity (MFI) and positive cell percentages of stained cells were determined by flow cytometry.
# [2] = tested on: Tregs from draining lymph nodes; assay: Adoptive transfer of TDLN DCs and ex-vivo Treg assay; assay type: in vivo, mouse; settings: sustained-release pellets; Tregs isolated after four days
# Source text: Adoptive transfer and ex-vivo Treg assay. The adoptive transfer model has been previously described (Munn et al., Immunit), 2005; 22:633-642; and Munn et al., J. Clin. Invest. 2004a; 114; 280-290). Briefly, DCs were sorted from TDLNs (total CD11c^+ cells), pulsed with […] (SEQ ID NO:1) peptide, and 5×10^4 DCs injected into anteriomedial thigh. For studies measuring ex vivo Treg suppressor activity, the recipient mice were pre-loaded with 5×10^6 sorted CD8^+ T-I cells. After four days, the inguinal LNs draining the site of DC injection were removed, and the CD4^+CD25^+ Tregs were isolated by FACS sorting. A titration of Tregs was added to readout assays, comprising CD4^+ A1 cells, CBA DCs, feeder layer, and H—Y peptide, all as described above. For CFSE proliferation studies, CD8^+ OT-I (wild-type or GCN2-KO background) were sorted, labeled with CFSE, and 5×10^6 cells injected intravenously into wild-type or GCN2-KO recipients. OVA-pulsed DCs from TDLNs were injected as above, and the inguinal (draining) LNs harvested after four days. LN cells were analyzed by FACS for CD8 vs 1B11 vs CFSE.
# [3] = tested on: OT-I and A1 T cells; assay: Bystander-suppression assays (TDLN IDO+ DCs, OT-I, Tregs, A1 bystander cells); assay type: cell-based, mouse
# Experimental: Isolation of tumor-draining lymph node DCs.
# Bystander-suppression assays. All experiments were repeated 3-5 times unless otherwise indicated. OT-I cells were sorted as CD8^+ spleen cells, gated on the CD11c^NEGB220^NEG fraction to exclude DCs. Sorted DCs from TDLN were mixed with 1×10^5 responder cells at a 1:40 ratio in V-bottom culture wells (Nunc). […] Sorted CD4^+ A1 cells (1×10^5) and CD11c^+ DCs (1:40 ratio) from normal CBA spleen were added as bystander cells. […] For transwell assays, 96-Multiwell insert plates (1 uM pore size, BD Falcon) were used and the number of cells in all groups was doubled.
# Feeder layer. Plasmacytoid DCs and Tregs have been reported to require survival factors to maintain viability and function in vitro.
# Readouts for T cell proliferation. […] After 72 hours, assays were stained for CD4 vs CD8 and CFSE fluorescence analyzed gated on CD4^+ (A1) and CD8^+ (OT-I) populations.
# Anti-CD3 proliferation and preactivation assays. […] For pre-activation studies, 2×10^4 Tregs were cultured with 1×10^5T-depleted spleen cells plus 0.1 ug/ml αCD3 antibody and 200 U/ml IL-2 (R&D Systems) for 48 hours.
compound,measurement,setting,value
"Cn1cc(C[C@@H](N)C(=O)O)c2ccccc21 [Inhibitor 1MT, 1-methyl-D-tryptophan]","PDC-induced CD4+CD25+Foxp3+ Treg generation, effect of added agent",[1],significantly reduced
same,ex vivo suppressor activity of Tregs from recipient mice given IDO+ DCs,[2],did not develop ex vivo suppressor activity
same,Treg-mediated suppression of bystander cells when IDO blocked,"[3]; 200 uM 1MT, without αCD3 mitogen",no suppression; also recorded: no spontaneous suppressor activity
same,αCD3-induced suppression in transwell experiments,"[3]; 10-fold more Tregs, αCD3 mitogen added",not blocked
same,suppression of bystander cells by Tregs in transwell chambers,"[3]; transwell, Tregs with IDO+ DCs in lower chamber",abrogated
